Measured values taken from PubChem BioAssay AID248 (DTP/NCI, 2004).
Toxic doses and inconclusive results are not listed. Cut-off read from the data, not from the text of the source: active = T/C of 150% or more; inactive = T/C below 125%.

System: L1210 leukemia ip in BDF1 mice, survival T/C
Assay: NCI In Vivo Anticancer Drug Screen. Data for tumor model L1210 Leukemia (intraperitoneal) in B6D2F1 (BDF1) mice
Conditions: endpoint: mean survival time, higher = longer survival
Summary of the method: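 Value reflects the ratio of survival in compound-treated mice to survival in vehicle-treated controls, with both groups carrying the same transplanted tumor.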

[1] = dose: 100.0 mg/kg/injection, schedule: Q01DX001 (ip), vehicle: saline
[2] = dose: 100.0 mg/kg/injection, schedule: Q04DX003 (ip), vehicle: saline with Tween-80
[3] = dose: 200.0 mg/kg/injection, schedule: Q04DX003 (ip), vehicle: saline with Tween-80
[4] = dose: 100.0 mg/kg/injection, schedule: Q01DX009 (ip), vehicle: Klucel (hydroxypropylcellulose) (HPC)
[5] = dose: 200.0 mg/kg/injection, schedule: Q01DX009 (ip), vehicle: Klucel (hydroxypropylcellulose) (HPC)
[6] = dose: 100.0 mg/kg/injection, schedule: Q01DX001 (ip), vehicle: carboxymethylcellulose (CMC)
[7] = dose: 400.0 mg/kg/injection, schedule: Q01DX009 (ip), vehicle: Klucel (hydroxypropylcellulose) (HPC)

Measured: T/C

CCOC(=O)C[n+]1ccccc1/C=C/c1ccc(O)cc1
inactive: dose: 9.38 mg/kg/injection, schedule: Q01DX001 (ip), vehicle: other 101 % of control

COc1ccc2c3c1OC1C(OC(C)=O)=CCC4C(C2)N(C)CCC314 (stereo not given)
inactive: [1] 93 % of control

CC1CN(c2ccccc2)CN1c1ccccc1 (stereo not given)
inactive: dose: 100.0 mg/kg/injection, schedule: Q04DX002 (sc), vehicle: olive oil, sesame oil, peanut oil 94 % of control | dose: 200.0 mg/kg/injection, schedule: Q04DX002 (sc), vehicle: olive oil, sesame oil, peanut oil 91 % of control | dose: 400.0 mg/kg/injection, schedule: Q04DX002 (sc), vehicle: olive oil, sesame oil, peanut oil 102 % of control

CCOP(=O)(OCC)Oc1ccc([N+](=O)[O-])c(CC)c1
inactive: dose: 5.0 mg/kg/injection, schedule: Q01DX001 (ip), vehicle: saline 100 % of control | dose: 10.0 mg/kg/injection, schedule: Q01DX001 (ip), vehicle: saline 100 % of control

CC(C)CC(O)CC(C)C
inactive: [2] 95 % of control | dose: 118.0 mg/kg/injection, schedule: Q01DX009 (ip), vehicle: saline with Tween-80 108 % of control | [3] 93 % of control | dose: 250.0 mg/kg/injection, schedule: Q01DX009 (ip), vehicle: saline with Tween-80 102 % of control | dose: 400.0 mg/kg/injection, schedule: Q04DX003 (ip), vehicle: saline with Tween-80 90 % of control

COc1ccc2c(c1)c(-n1cc([N+](=O)[O-])nc1C)c(C)n2C(=O)c1ccc(Cl)cc1
inactive: dose: 50.0 mg/kg/injection, schedule: Q01DX009 (ip), vehicle: Klucel (hydroxypropylcellulose) (HPC) 97 % of control | [4] 97 % of control | [5] 93 % of control

CC(=O)OC1=CC(=O)c2ccccc2C1=O
inactive: dose: 5.0 mg/kg/injection, schedule: Q01DX001 (ip), vehicle: carboxymethylcellulose (CMC) 101 % of control | dose: 10.0 mg/kg/injection, schedule: Q01DX001 (ip), vehicle: carboxymethylcellulose (CMC) 101 % of control | dose: 20.0 mg/kg/injection, schedule: Q01DX001 (ip), vehicle: carboxymethylcellulose (CMC) 101 % of control | dose: 40.0 mg/kg/injection, schedule: Q01DX001 (ip), vehicle: carboxymethylcellulose (CMC) 107 % of control | dose: 80.0 mg/kg/injection, schedule: Q01DX001 (ip), vehicle: carboxymethylcellulose (CMC) 107 % of control | [6] 104 % of control

O=C(CCl)NC(O)C(Cl)(Cl)Cl (stereo not given)
inactive: dose: 1.8 mg/kg/injection, schedule: Q01DX009 (ip), vehicle: saline with Tween-80 100 % of control | dose: 3.7 mg/kg/injection, schedule: Q01DX009 (ip), vehicle: saline with Tween-80 98 % of control | dose: 7.5 mg/kg/injection, schedule: Q01DX009 (ip), vehicle: saline with Tween-80 102 % of control | dose: 75.0 mg/kg/injection, schedule: Q04DX003 (ip), vehicle: saline 101 % of control | dose: 150.0 mg/kg/injection, schedule: Q04DX003 (ip), vehicle: saline 101 % of control | dose: 300.0 mg/kg/injection, schedule: Q04DX003 (ip), vehicle: saline 87 % of control

Cc1ccc(C)c(Cl)c1
inactive: dose: 50.0 mg/kg/injection, schedule: Q01DX001 (ip), vehicle: saline with Tween-80 95 % of control | dose: 50.0 mg/kg/injection, schedule: Q04DX003 (ip), vehicle: saline with Tween-80 101 % of control | dose: 100.0 mg/kg/injection, schedule: Q01DX001 (ip), vehicle: saline with Tween-80 97 % of control | [2] 100 % of control | dose: 200.0 mg/kg/injection, schedule: Q01DX001 (ip), vehicle: saline with Tween-80 97 % of control | [3] 97 % of control

CC(=O)N(C)c1ccc(NC(=O)Nc2ccccc2F)cc1
inactive: [4] 98 % of control | [5] 95 % of control | [7] 95 % of control

c1ccc(C[Si](Cc2ccccc2)Cc2ccccc2)cc1
inactive: [1] 105 % of control | dose: 100.0 mg/kg/injection, schedule: Q01DX009 (ip), vehicle: saline 88 % of control | dose: 200.0 mg/kg/injection, schedule: Q01DX001 (ip), vehicle: saline 90 % of control | dose: 200.0 mg/kg/injection, schedule: Q01DX009 (ip), vehicle: saline 88 % of control | dose: 400.0 mg/kg/injection, schedule: Q01DX001 (ip), vehicle: saline 104 % of control | dose: 400.0 mg/kg/injection, schedule: Q01DX009 (ip), vehicle: saline 90 % of control

O=S(=O)(O)c1ccc(S)cc1
inactive: dose: 75.0 mg/kg/injection, schedule: Q01DX001 (ip), vehicle: other 117 % of control

N#Cc1ccc[n+](CCCl)c1
inactive: dose: 30.0 mg/kg/injection, schedule: Q01DX Z (ip), vehicle: saline 95 % of control

Cc1ccc(S(=O)(=O)CN2CCC(=O)c3ccccc32)cc1
inactive: dose: 75.0 mg/kg/injection, schedule: Q01DX001 (ip), vehicle: saline 104 % of control | dose: 150.0 mg/kg/injection, schedule: Q01DX001 (ip), vehicle: saline 101 % of control | dose: 300.0 mg/kg/injection, schedule: Q01DX001 (ip), vehicle: saline 93 % of control

Nc1ccc(CCc2ccccc2)cc1
inactive: dose: 50.0 mg/kg/injection, schedule: Q01DX009 (ip), vehicle: saline with Tween-80 97 % of control

O=P(NN1CCCCC1)(NN1CCCCC1)c1ccccc1
inactive: dose: 100.0 mg/kg/injection, schedule: Q01DX009 (ip), vehicle: carboxymethylcellulose (CMC) 93 % of control | dose: 200.0 mg/kg/injection, schedule: Q01DX009 (ip), vehicle: carboxymethylcellulose (CMC) 93 % of control

c1ccc(-c2oc3ccc4ccccc4c3c2-c2ccc(OCCN3CCCC3)cc2)cc1
inactive: dose: 10.0 mg/kg/injection, schedule: Q01DX009 (ip), vehicle: Klucel (hydroxypropylcellulose) (HPC) 102 % of control | dose: 20.0 mg/kg/injection, schedule: Q01DX009 (ip), vehicle: Klucel (hydroxypropylcellulose) (HPC) 101 % of control | dose: 40.0 mg/kg/injection, schedule: Q01DX009 (ip), vehicle: Klucel (hydroxypropylcellulose) (HPC) 101 % of control | dose: 80.0 mg/kg/injection, schedule: Q01DX009 (ip), vehicle: Klucel (hydroxypropylcellulose) (HPC) 101 % of control

CCN(Cc1ccccc1)C(=S)[S-].CCN(Cc1ccccc1)C(=S)[S-].[Zn]
inactive: dose: 100.0 mg/kg/injection, schedule: Q04DX003 (ip), vehicle: saline 91 % of control | dose: 200.0 mg/kg/injection, schedule: Q04DX003 (ip), vehicle: saline 94 % of control | dose: 400.0 mg/kg/injection, schedule: Q04DX003 (ip), vehicle: saline 89 % of control

COc1ccc(/C=C2\N=C(c3ccc([N+](=O)[O-])cc3)OC2=O)cc1
inactive: [4] 93 % of control | [5] 91 % of control | [7] 95 % of control

COc1cc(CC(C(=O)OC(C)(C)C)C(=O)OC(C)(C)C)cc(OC)c1OC
inactive: dose: 50.0 mg/kg/injection, schedule: Q01DX001 (ip), vehicle: carboxymethylcellulose (CMC) 101 % of control | [6] 97 % of control | dose: 200.0 mg/kg/injection, schedule: Q01DX001 (ip), vehicle: carboxymethylcellulose (CMC) 97 % of control | dose: 400.0 mg/kg/injection, schedule: Q01DX001 (ip), vehicle: carboxymethylcellulose (CMC) 109 % of control

CCc1c(Nc2ccc(C)c(C)c2)[nH]c(N)nc1=S
inactive: dose: 100.0 mg/kg/injection, schedule: Q01DX Z (ip), vehicle: methylcellulose (MC) 87 % of control | dose: 200.0 mg/kg/injection, schedule: Q01DX Z (ip), vehicle: methylcellulose (MC) 109 % of control

CCOC(=S)c1ccc(S(=O)(=O)Nc2ccc(OCC)cc2)cc1
inactive: dose: 100.0 mg/kg/injection, schedule: Q01DX001 (ip), vehicle: Klucel (hydroxypropylcellulose) (HPC) 95 % of control | dose: 200.0 mg/kg/injection, schedule: Q01DX001 (ip), vehicle: Klucel (hydroxypropylcellulose) (HPC) 98 % of control | dose: 400.0 mg/kg/injection, schedule: Q01DX001 (ip), vehicle: Klucel (hydroxypropylcellulose) (HPC) 95 % of control

CCOC(=O)C1(C(=O)O)CC2C(C)C=CC(C)C2C1 (stereo not given)
inactive: dose: 100.0 mg/kg/injection, schedule: Q04DX003 (ip), vehicle: Klucel (hydroxypropylcellulose) (HPC) 100 % of control | dose: 200.0 mg/kg/injection, schedule: Q04DX003 (ip), vehicle: Klucel (hydroxypropylcellulose) (HPC) 94 % of control | dose: 400.0 mg/kg/injection, schedule: Q04DX003 (ip), vehicle: Klucel (hydroxypropylcellulose) (HPC) 91 % of control

Oc1ccc2c(ccc3ccc4ccccc4c32)c1
inactive: dose: 100.0 mg/kg/injection, schedule: Q01DX001 (ip), vehicle: alcohol 103 % of control | dose: 200.0 mg/kg/injection, schedule: Q01DX001 (ip), vehicle: alcohol 100 % of control | dose: 400.0 mg/kg/injection, schedule: Q01DX001 (ip), vehicle: alcohol 95 % of control
